Assays:
[1] = Stability with different solvents (initial tests, HPLC-DAD); format: physicochemical; conditions: room temperature
Method: The stability of (E)-3-tosylacrylonitrile in different solvents, concentrations and temperatures was studied. The initial tests were conducted at room temperature and the tested solvents were i) propylene carbonate; ii) ethanol; iii) dimethylsulfoxide (DMSO); iv) combination of 35% ethanol-65% propylene glycol; v) water at pH 4; and water at pH 8. The amount of (E)-3-tosylacrylonitrile was analysed with HPLC-DAD. For sample pre-treatment, an approximately 1.45 mg/ml solution of (E)-3-tosylacrylonitrile was prepared in acetonitrile and the solution was analysed by HPLC. Quantification was performed using external (ESTD) calibration with authentic standards. Results from the initial tests with propylene carbonate, ethanol, dimethylsulfoxide, 35% ethanol-65% propylene glycol, and water are presented in FIG. 1.

[2] = Long-time stability in propylene carbonate (second round of tests, HPLC-DAD); format: physicochemical
Method: The amount of (E)-3-tosylacrylonitrile was analysed with HPLC-DAD. For sample pre-treatment, an approximately 1.45 mg/ml solution of (E)-3-tosylacrylonitrile was prepared in acetonitrile and the solution was analysed by HPLC. Quantification was performed using external (ESTD) calibration with authentic standards. After the initial tests, a second round of tests were conducted with propylene carbonate. The stability of (E)-3-tosylacrylonitrile in propylene carbonate was tested at 10 mg/ml and 50 mg/ml concentrations and at different temperatures. The effect of light on the stability was also examined (FIGS. 2 and 3).

In the case of `Cc1ccc(S(=O)(=O)/C=C/C#N)cc1` [(E)-3-tosylacrylonitrile], the “dissolving in propylene carbonate” value ([1]; propylene carbonate) is reported as “dissolved immediately”, the “stability in propylene carbonate (short-term)” value ([1]; propylene carbonate) is reported as “stable for at least one month” and the “dissolving in the tested solvent” value ([1]; most tested solvents (ethanol, DMSO, 35% ethanol-65% propylene glycol, water pH 4, water pH 8)) is reported as “did not dissolve thoroughly in the tested solvent or dissolving continued for several days”. For the same compound, the “final concentration of (E)-3-tosylacrylonitrile after 6 months” value ([2]; 10 mg/ml and 50 mg/ml, all tested conditions (different temperatures, light), 6 months) was “above 90%”, the “degradation in propylene carbonate” value ([2]; 10 and 50 mg/ml) was “slow” and the “stability in propylene carbonate” value ([2]; 10 and 50 mg/ml, different temperatures, light) was “good even in harsh conditions”.

Source: patent US12497356B2, “Stable formulation of arylsulfonylpropenenitriles” (KEMIRA OYJ, priority 2019, dated 2025)
